Values joined by “and” are separate entries in the source; they are usually repeats but may differ in a detail not shown here. Equal values may be shown once.
Target: Glucagon receptor (Homo sapiens, UniProt P47871)
Assay: Glucagon SPA Assay
Conditions: pH 7.4
Excerpt: The Glucagon SPA assay is used to determine the ability of test compounds to block the binding of glucagon-cex to the glucagon receptors.

Chain of Glucagon receptor (P47871 whole entry): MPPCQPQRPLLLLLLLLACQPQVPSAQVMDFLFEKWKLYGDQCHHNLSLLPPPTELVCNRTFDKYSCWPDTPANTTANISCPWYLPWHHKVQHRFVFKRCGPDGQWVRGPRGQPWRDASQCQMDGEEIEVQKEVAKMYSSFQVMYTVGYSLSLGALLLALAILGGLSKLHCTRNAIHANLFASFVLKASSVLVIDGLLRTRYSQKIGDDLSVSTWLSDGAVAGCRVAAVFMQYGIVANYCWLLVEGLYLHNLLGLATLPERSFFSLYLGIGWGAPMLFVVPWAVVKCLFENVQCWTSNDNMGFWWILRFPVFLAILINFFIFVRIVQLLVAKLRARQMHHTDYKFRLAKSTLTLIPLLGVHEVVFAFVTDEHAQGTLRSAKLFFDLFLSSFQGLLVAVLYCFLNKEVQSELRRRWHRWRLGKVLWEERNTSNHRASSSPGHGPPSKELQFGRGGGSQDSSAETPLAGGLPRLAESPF

Ki | SMILES
58 nM | CCCC(Oc1ccc(-n2cc(-c3ccccc3)cn2)nc1)c1ccc(C(=O)NCCC(=O)O)cc1 (configuration not stated) [US8507533, 133]
183 nM and 297 nM | Cc1cc(-n2cc(C(F)(F)F)cn2)ccc1C(Nc1ccc(C(=O)NCCC(=O)O)cn1)C1CCCCC1 (single isomer, unassigned) [US8507533, 337]

From BindingDB's records for patent US8507533 (Pfizer, 2013)
